From US20250230155A1 (Vanderbilt University, priority 2021, published 2025)

Target: T1, human mAChR M4 (Homo sapiens, UniProt P08173)
T1 construct: expressed in transfected cells
T1 sequence (P08173 1-479): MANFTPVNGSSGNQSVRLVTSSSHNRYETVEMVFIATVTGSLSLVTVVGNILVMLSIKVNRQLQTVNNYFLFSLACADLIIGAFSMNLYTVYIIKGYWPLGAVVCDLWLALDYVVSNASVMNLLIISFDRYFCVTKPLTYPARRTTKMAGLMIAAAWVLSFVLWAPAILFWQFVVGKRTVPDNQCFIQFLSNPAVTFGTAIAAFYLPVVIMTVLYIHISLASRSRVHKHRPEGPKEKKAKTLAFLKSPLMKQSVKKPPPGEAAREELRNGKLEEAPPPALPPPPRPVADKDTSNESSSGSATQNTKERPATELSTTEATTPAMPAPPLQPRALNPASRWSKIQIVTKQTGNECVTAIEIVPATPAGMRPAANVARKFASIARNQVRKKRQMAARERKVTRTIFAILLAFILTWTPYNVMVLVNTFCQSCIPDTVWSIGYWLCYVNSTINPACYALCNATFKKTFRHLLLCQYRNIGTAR
Assay: mAChR M4 cell-based functional assay (calcium mobilization, CHO-K1 hM4-Gqi5 cells)
Settings: for Emax at 30 µM: CHO-K1, % ACh maximum at 30 μM, human M4; for EC50: positive allosteric modulator activity, increase in the EC20 acetylcholine response, CHO-K1 hM4-Gqi5 cells, read-out: Human M4 EC50
In short: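 CHO-K1 cells stably expressing human M4 with chimeric Gqi5, loaded with Fluo-4 AM; compounds given as 11-point 1:3 curves and calcium flux read on FDSS at 1 Hz. Acetylcholine EC20 added at 144 s, EC80 at 230 s; agonist, PAM (EC20 potentiation) and antagonist (EC80 inhibition) EC50/Emax from four-parameter fits.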

Row | Structure (SMILES) | Emax at 30 µM | EC50 | Emax (CHO-K1)
1 | Cc1nc(C)c(C)c(N2CCc3ncc(Nc4ccnn4C)cc3C2)n1 [compound 241, N-(1-methyl-1H-pyrazol-5-yl)-6-(2,5,6-trimethylpyrimidin-4-yl)-5,6,7,8-tetrahydro-1,6-naphthyridin-3-amine] | 81% | 111 nM | 
2 | COc1cc(-c2cnc3c(c2)CN(c2ncc(C#N)cc2C)CC3)ccn1 [Example 338, 6-(3-(2-methoxypyridin-4-yl)-7,8-dihydro-1,6-naphthyridin-6(5H)-yl)-5-methylnicotinonitrile] | 91% | 315 nM | 
3 | Cc1cc(C#N)nnc1N1CCc2ncc(Nc3ccnn3C)cc2C1 [Example 311, 5-methyl-6-(3-((1-methyl-1H-pyrazol-5-yl)amino)-7,8-dihydro-1,6-naphthyridin-6(5H)-yl)pyridazine-3-carbonitrile] | 94% | 239 nM | 
4 | Cc1cc(C#N)cnc1N1CCc2ncc(C3CCC3)cc2C1 [Example 403, 6-(3-cyclobutyl-7,8-dihydro-1,6-naphthyridin-6(5H)-yl)-5-methylnicotinonitrile] | 91% | 84 nM | 
5 | Cc1cc(C(=O)NC2CCc3ncccc3C2)nnc1N1CCc2ncc(C(F)(F)F)cc2C1 (centres unmarked) [Example 501, 5-methyl-N-(5,6,7,8-tetrahydroquinolin-6-yl)-6-(3-(trifluoromethyl)-7,8-dihydro-1,6-naphthyridin-6(5H)-yl)pyridazine-3-carboxamide] | 109% | 127 nM | 
6 | Cc1cc(C#N)cnc1N1CCc2ncc(Oc3ccccc3F)cc2C1 [compound 180, 6-[3-(2-fluorophenoxy)-7,8-dihydro-5H-1,6-naphthyridin-6-yl]-5-methyl-pyridine-3-carbonitrile] | 94% | 96.9 nM | 
7 | Cc1c(C#N)nnc(N2CCc3ncc(C4CC4)cc3C2)c1C [Example 317, 6-(3-cyclopropyl-7,8-dihydro-1,6-naphthyridin-6(5H)-yl)-4,5-dimethylpyridazine-3-carbonitrile] | 85% | 98 nM | 
8 | COCCOc1cnc2c(c1)CN(c1ncc(C#N)cc1C)CC2 [Example 434, 6-(3-(2-methoxyethoxy)-7,8-dihydro-1,6-naphthyridin-6(5H)-yl)-5-methylnicotinonitrile] | 102% | 958 nM | 
9 | [2H]C1([2H])Cc2ncc(Nc3cc(C)ncc3F)cc2C([2H])([2H])N1c1ncc(C#N)cc1C [Example 601, 6-(3-((5-fluoro-2-methylpyridin-4-yl)amino)-7,8-dihydro-1,6-naphthyridin-6(5H)-yl-5,5,7,7-d4)-5-methylnicotinonitrile] | 95% | 7 nM | 
10 | Cc1nc(Cl)c(C)c(N2CCc3ncc(Nc4ccccc4F)cc3C2)n1 [compound 85, 6-(6-chloro-2,5-dimethyl-pyrimidin-4-yl)-N-(2-fluorophenyl)-7,8-dihydro-5H-1,6-naphthyridin-3-amine] | 86% | 361 nM | 
11 | Cc1cc(C(=O)NCc2ccncc2)nnc1N1CCc2ncc(C(F)(F)F)cc2C1 [Example 493, 5-methyl-N-(pyridin-4-ylmethyl)-6-(3-(trifluoromethyl)-7,8-dihydro-1,6-naphthyridin-6(5H)-yl)pyridazine-3-carboxamide] | 112% | 37 nM | 
12 | Cc1ccc(Oc2cnc3c(c2)CN(c2nnc(C#N)c(C)c2C)CC3)c(F)c1 [Example 358, 6-(3-(2-fluoro-4-methylphenoxy)-7,8-dihydro-1,6-naphthyridin-6(5H)-yl)-4,5-dimethylpyridazine-3-carbonitrile] | 82% | 320 nM | 
13 | Cc1cc(C#N)cnc1N1CCc2ncc(-c3ccnc(C#N)c3)cc2C1 [Example 336, 4-(6-(5-cyano-3-methylpyridin-2-yl)-5,6,7,8-tetrahydro-1,6-naphthyridin-3-yl)picolinonitrile] | 49% | 258 nM | 
14 | Cc1nc(Cl)c(C)c(N2CCc3ncc(-c4cnn(C)c4)cc3C2)n1 [compound 92, 6-(6-chloro-2,5-dimethyl-pyrimidin-4-yl)-3-(1-methylpyrazol-4-yl)-7,8-dihydro-5H-1,6-naphthyridine] | 82% | 218 nM | 
15 | FC(F)(F)c1cnc2c(c1)CN(c1nc(C3CC3)nc3c1CCC3)CC2 [compound 265, 6-(2-cyclopropyl-6,7-dihydro-5H-cyclopenta[d]pyrimidin-4-yl)-3-(trifluoromethyl)-5,6,7,8-tetrahydro-1,6-naphthyridine] |  | 1480 nM | 
16 | Cc1cc(C(=O)N2CC(F)(F)C2)nnc1N1CCc2ncc(-c3ccnn3C)cc2C1 [Example 567, (3,3-difluoroazetidin-1-yl)(5-methyl-6-(3-(1-methyl-1H-pyrazol-5-yl)-7,8-dihydro-1,6-naphthyridin-6(5H)-yl)pyridazin-3-yl)methanone] | 75% | 70 nM | 
17 | Cc1nn(C)cc1-c1cnc2c(c1)CN(c1nc(CO)nc(C)c1C)CC2 [compound 226, (4-(3-(1,3-dimethyl-1H-pyrazol-4-yl)-7,8-dihydro-1,6-naphthyridin-6(5H)-yl)-5,6-dimethylpyrimidin-2-yl)methanol] | 89% | 346 nM | 
18 | Cc1c(C#N)nnc(N2CCc3ncc(-c4ccncc4)cc3C2)c1C [compound 74, 4,5-dimethyl-6-[3-(4-pyridyl)-7,8-dihydro-5H-1,6-naphthyridin-6-yl]pyridazine-3-carbonitrile] | 87% | 368 nM | 
19 | Cc1nc(Cl)c(C)c(N2Cc3cc(N)cnc3C(C)(C)C2)n1 [compound 219, 6-(6-chloro-2,5-dimethylpyrimidin-4-yl)-8,8-dimethyl-5,6,7,8-tetrahydro-1,6-naphthyridin-3-amine] |  | ≥ 10000 nM | 37%
20 | Cc1cc(C#N)cnc1N1CCc2ncc(Nc3ccccc3F)cc2C1 [Example 7] | 94% | 90.5 nM | 
21 | Cc1ccc(-c2cnc3c(c2)CN(c2nnc(C#N)cc2C)CC3)cn1 [Example 392, 5-methyl-6-(3-(6-methylpyridin-3-yl)-7,8-dihydro-1,6-naphthyridin-6(5H)-yl)pyridazine-3-carbonitrile] | 85% | 458 nM | 
22 | Cc1nc(Cl)c(C)c(N2Cc3cc(C(F)(F)F)cnc3C(C)(C)C2)n1 [compound 257, 6-(6-chloro-2,5-dimethylpyrimidin-4-yl)-8,8-dimethyl-3-(trifluoromethyl)-5,6,7,8-tetrahydro-1,6-naphthyridine] | 39% | 8310 nM | 
23 | Cc1cc(C#N)cnc1N1CCc2ncc(Nc3cc(F)ccc3F)cc2C1 [compound 110, 6-[3-(2,5-difluoroanilino)-7,8-dihydro-5H-1,6-naphthyridin-6-yl]-5-methyl-pyridine-3-carbonitrile] | 95% | 167 nM | 
24 | Cc1cc(C(=O)N2CC(C)(F)C2)nnc1N1CCc2ncc(N3CCCn4nccc43)cc2C1 [Example 546, (6-(3-(6,7-dihydropyrazolo[1,5-a]pyrimidin-4(5H)-yl)-7,8-dihydro-1,6-naphthyridin-6(5H)-yl)-5-methylpyridazin-3-yl)(3-fluoro-3-methylazetidin-1-yl)methanone] | 116% | 16 nM | 
25 | Cc1cc(C(=O)NCc2ccc3nn[nH]c3c2)cnc1N1CCc2ncccc2C1 [compound 150, N-(3H-benzotriazol-5-ylmethyl)-6-(7,8-dihydro-5H-1,6-naphthyridin-6-yl)-5-methyl-pyridine-3-carboxamide] | 61% | 4680 nM | 
26 | Cc1cc(C(=O)NCc2ccc3c(c2)COC3)cnc1N1CCc2ncccc2C1 [compound 153, N-(1,3-dihydroisobenzofuran-5-ylmethyl)-6-(7,8-dihydro-5H-1,6-naphthyridin-6-yl)-5-methyl-pyridine-3-carboxamide] | 68% | 3170 nM | 
27 | Cc1cc(C#N)cnc1N1CCc2ncc(-c3cnn(C4CCCCC4)c3)cc2C1 [compound 99, 6-[3-(1-cyclohexylpyrazol-4-yl)-7,8-dihydro-5H-1,6-naphthyridin-6-yl]-5-methyl-pyridine-3-carbonitrile] | 57% | 740 nM | 
28 | Cc1c(C#N)nnc(N2CCc3ncc(-c4ccns4)cc3C2)c1C [compound 292, 6-(3-(isothiazol-5-yl)-7,8-dihydro-1,6-naphthyridin-6(5H)-yl)-4,5-dimethylpyridazine-3-carbonitrile] | 86% | 163 nM | 
29 | Cc1cc(C#N)cnc1N1CCc2ncc(N3CCC(C(F)(F)F)n4nccc43)cc2C1 (centres unmarked) [Example 359, 5-methyl-6-(3-(7-(trifluoromethyl)-6,7-dihydropyrazolo[1,5-a]pyrimidin-4(5H)-yl)-7,8-dihydro-1,6-naphthyridin-6(5H)-yl)nicotinonitrile] | 120% | 472 nM | 
30 | COc1cc(-c2cnc3c(c2)CN(c2ncc(C#N)cc2C)CC3)c(Cl)cn1 [Example 341, 6-(3-(5-chloro-2-methoxypyridin-4-yl)-7,8-dihydro-1,6-naphthyridin-6(5H)-yl)-5-methylnicotinonitrile] | 49% | 1490 nM | 
